# Laboratory results reported in PMC6261661 (ACS chemical neuroscience, 2018).
# Several values for one entry are separate records, joined by “and”; a condition that tells them apart may be missing. Equal values may be shown once. Entries after “also recorded” stand apart in the source; their conditions may differ. Read-outs that look alike come from different tables or passages of the source. Square brackets hold non-standard residues; d marks the D form. Peptide text beside a SMILES is read from it. Bip = N[C@@H](Cc1ccc(-c2ccccc2)cc1)C(=O)O; dBip = N[C@H](Cc1ccc(-c2ccccc2)cc1)C(=O)O; dPhe(4-I) = N[C@H](Cc1ccc(I)cc1)C(=O)O; 1Nal = N[C@@H](Cc1cccc2ccccc12)C(=O)O; 2Nal = N[C@@H](Cc1ccc2ccccc2c1)C(=O)O; d2Nal = N[C@H](Cc1ccc2ccccc2c1)C(=O)O; Bta = N[C@@H](Cc1csc2ccccc12)C(=O)O; 3Pal = N[C@@H](Cc1cccnc1)C(=O)O; 4Pal = N[C@@H](Cc1ccncc1)C(=O)O; Tic = O=C(O)[C@@H]1Cc2ccccc2CN1; 2Thi = N[C@@H](Cc1cccs1)C(=O)O
# How the values were obtained:
# mMC5R [1] = biological target: T1, mMC5R (Mus musculus, UniProt P41149); test: CRE/β-galactosidase reporter gene bioassay, agonist activity at mMC5R; assay type: cell-based; conditions: for mMC5R pharmacology in words: comparisons are to reference peptide 1; for selectivity between the mMC1R and the mMC5R: monosubstituted reference peptides, from literature EC50 values of Table 3
# mMC4R [2] = biological target: T2, mMC4R (Mus musculus, UniProt P56450); test: CRE/β-galactosidase reporter gene bioassay, agonist activity at mMC4R; assay type: cell-based; conditions: ligand at 100 μM, compared to maximal response generated by α-MSH
# male and female mice = conditions: central administration, ref [37]; cited from earlier work
# mMC4R [3] = biological target: T2, mMC4R; test: Antagonist Schild analysis against agonist MTII at mMC4R; assay type: cell-based; conditions: for mMC4R pharmacology class printed in Fold Diff. column (Ant, SA): Ant = antagonist, SA = some stimulatory activity at 100 µM
# mMC3R [4] = biological target: T3, mMC3R (Mus musculus, UniProt P33033); test: Antagonist Schild analysis against agonist MTII at mMC3R; assay type: cell-based; conditions: for mMC3R pharmacology class printed in Fold Diff column (Ant, SA): Ant = antagonist, SA = some stimulatory activity at 100 µM
# mMC1R [5] = biological target: T4, mMC1R (Mus musculus, UniProt Q01727); test: CRE/β-galactosidase reporter gene bioassay, agonist activity at mMC1R; assay type: cell-based; conditions: for mMC1R Fold Diff: fold difference in EC50 vs peptide 1, negative prefix = more potent than 1; for EC50: mMC1R EC50, agonist, HEK-293 cells stably expressing receptor, ±SEM
# mMC3R [6] = biological target: T3, mMC3R; test: cell-based; assay type: cell-based; conditions: ligand at 100 μM, compared to maximal response generated by α-MSH
# mMC4R [7] = biological target: T2, mMC4R; conditions: read-out: mMC4R EC50, reference peptide from the literature, cited from earlier work
# mMC5R [8] = biological target: T1, mMC5R; conditions: read-out: mMC5R EC50, reference peptide from the literature, cited from earlier work
# mMC1R [9] = biological target: T4, mMC1R; conditions: read-out: mMC1R EC50, reference peptide from the literature, cited from earlier work
# mMC3R [10] = biological target: T3, mMC3R; conditions: cited from earlier work; for EC50: read-out: mMC3R EC50, reference peptide from the literature
# T2 sequence (P56450 whole entry): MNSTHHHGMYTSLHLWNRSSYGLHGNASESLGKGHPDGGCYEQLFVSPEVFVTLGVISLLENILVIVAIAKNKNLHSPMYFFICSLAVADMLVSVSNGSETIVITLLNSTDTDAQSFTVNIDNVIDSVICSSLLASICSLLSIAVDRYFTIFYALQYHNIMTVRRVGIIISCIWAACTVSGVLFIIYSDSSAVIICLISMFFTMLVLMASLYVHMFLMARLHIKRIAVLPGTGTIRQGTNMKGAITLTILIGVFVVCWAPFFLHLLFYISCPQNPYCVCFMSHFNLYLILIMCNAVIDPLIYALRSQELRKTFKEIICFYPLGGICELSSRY
# T1 sequence (P41149 whole entry): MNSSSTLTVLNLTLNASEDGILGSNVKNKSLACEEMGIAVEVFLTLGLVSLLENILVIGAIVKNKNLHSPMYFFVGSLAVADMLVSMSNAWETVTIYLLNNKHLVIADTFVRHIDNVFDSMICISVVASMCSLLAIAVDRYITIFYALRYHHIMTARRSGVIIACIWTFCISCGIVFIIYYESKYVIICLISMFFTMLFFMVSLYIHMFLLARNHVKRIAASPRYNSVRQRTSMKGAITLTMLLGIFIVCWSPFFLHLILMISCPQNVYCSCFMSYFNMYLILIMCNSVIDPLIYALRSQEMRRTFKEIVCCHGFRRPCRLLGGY
# T4 sequence (Q01727 whole entry): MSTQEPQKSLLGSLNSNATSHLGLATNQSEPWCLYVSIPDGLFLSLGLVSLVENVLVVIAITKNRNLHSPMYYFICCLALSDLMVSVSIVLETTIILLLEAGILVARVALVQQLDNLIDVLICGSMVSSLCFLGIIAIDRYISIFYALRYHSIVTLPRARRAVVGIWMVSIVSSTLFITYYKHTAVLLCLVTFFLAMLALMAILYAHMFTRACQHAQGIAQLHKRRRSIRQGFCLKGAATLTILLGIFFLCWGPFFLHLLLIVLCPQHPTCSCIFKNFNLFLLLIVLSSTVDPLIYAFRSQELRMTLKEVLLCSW
# T3 sequence (P33033 whole entry): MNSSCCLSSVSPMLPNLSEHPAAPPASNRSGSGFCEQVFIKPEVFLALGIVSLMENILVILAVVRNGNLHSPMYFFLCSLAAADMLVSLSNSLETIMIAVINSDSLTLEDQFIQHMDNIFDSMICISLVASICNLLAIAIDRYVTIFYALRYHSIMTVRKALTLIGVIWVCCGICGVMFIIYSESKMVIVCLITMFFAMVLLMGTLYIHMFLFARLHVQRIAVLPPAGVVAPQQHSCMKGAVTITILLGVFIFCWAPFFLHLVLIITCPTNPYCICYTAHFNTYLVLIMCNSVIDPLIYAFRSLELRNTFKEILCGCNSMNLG
compound,measurement,setting,value
"CC(=O)N[C@@H](Cc1c[nH]c2ccccc12)C(=O)N[C@H](Cc1ccc(I)cc1)C(=O)N[C@@H](CCCNC(=N)N)C(=O)N[C@@H](Cc1c[nH]c2ccccc12)C(N)=O [Peptide 13, Ac-Trp-(pI)DPhe-Arg-Trp-NH2] (Ac-W[dPhe(4-I)]RW-NH2)",EC50,mMC5R [1],10000 ± 3000 nM
same,mMC5R Fold Diff.,"mMC5R [1]; fold difference in EC50 vs peptide 1, negative prefix = more potent than 1",1905
same,mMC5R fold less potent than peptide 1,mMC5R [1]; less potent than 1,1900 fold
same,mMC4R relative percentage of stimulation at 100 μM,mMC4R [2],40%
same,effect on energy homeostasis in vivo,male and female mice,different effects on energy homeostasis in male mice compared to female mice
same,Kb,mMC4R [3],5.01 nM
same,"mMC4R pharmacology class printed in Fold Diff. column (Ant, SA)",mMC4R [3],SA Ant
same,Kb,mMC3R [4],63.1 nM
same,"mMC3R pharmacology class printed in Fold Diff column (Ant, SA)",mMC3R [4],Ant
same,mMC1R Fold Diff,mMC1R [5],30
same,EC50,mMC1R [5],4200 ± 1200 nM
"CC(=O)N[C@@H](Cc1c[nH]cn1)C(=O)N[C@H](Cc1ccc(I)cc1)C(=O)N[C@@H](CCCNC(=N)N)C(=O)N[C@@H](Cc1csc2ccccc12)C(N)=O [Peptide 30, Ac-His-(pI)DPhe-Arg-3Bal-NH2] (Ac-H[dPhe(4-I)]R[Bta]-NH2)",EC50,mMC5R [1],3.2 ± 0.7 nM
same,mMC5R pharmacology in words,mMC5R [1],equipotent agonists; also recorded: very potent nanomolar agonist activity
same,mMC4R relative percentage of stimulation at 100 μM,mMC4R [2],50%
same,Kb,mMC4R [3],10 nM
same,"mMC4R pharmacology class printed in Fold Diff. column (Ant, SA)",mMC4R [3],SA Ant
same,mMC3R relative percentage of stimulation at 100 μM,mMC3R [6],25%
same,Kb,mMC3R [4],39.8 nM
same,"mMC3R pharmacology class printed in Fold Diff column (Ant, SA)",mMC3R [4],SA Ant
same,EC50,mMC1R [5],45 ± 14 nM
"CC(=O)N[C@@H](Cc1c[nH]cn1)C(=O)N[C@H](Cc1ccc(-c2ccccc2)cc1)C(=O)N[C@@H](CCCNC(=N)N)C(=O)N[C@@H](Cc1csc2ccccc12)C(N)=O [Peptide 34, Ac-His-DBip-Arg-3Bal-NH2] (Ac-H[dBip]R[Bta]-NH2)",EC50,mMC5R [1],6.9 ± 0.2 nM
same,mMC5R pharmacology in words,mMC5R [1],equipotent agonists
same,mMC4R relative percentage of stimulation at 100 μM,mMC4R [2],65%
same,Kb,mMC4R [3],20 nM
same,"mMC4R pharmacology class printed in Fold Diff. column (Ant, SA)",mMC4R [3],SA Ant
same,mMC3R relative percentage of stimulation at 100 μM,mMC3R [6],55%
same,Kb,mMC3R [4],316 nM
same,"mMC3R pharmacology class printed in Fold Diff column (Ant, SA)",mMC3R [4],SA Ant
same,mMC1R pharmacology in words,mMC1R [5]; comparisons are to reference peptide 1,more potent
same,mMC1R Fold Diff,mMC1R [5],−16
same,EC50,mMC1R [5],9 nM and 8.9 nM
same,"mMC1R fold difference in EC50, more potent than reference peptide 1",mMC1R [5]; more potent agonist than 1,16 fold
"CC(=O)N[C@@H](Cc1c[nH]cn1)C(=O)N[C@H](Cc1ccccc1)C(=O)N[C@@H](CCCNC(=N)N)C(=O)N[C@@H](Cc1ccc2ccccc2c1)C(N)=O [Peptide 39, Ac-His-DPhe-Arg-Nal(2’)-NH2] (Ac-H[dF]R[2Nal]-NH2)",EC50,mMC4R [7]; ref [31],16 nM and 15.8 nM
same,selectivity between the mMC1R and the mMC5R,mMC5R [1],≤ 5 fold
same,EC50,mMC5R [8]; ref [31],4.9 ± 1.5 nM
same,EC50,mMC1R [9]; ref [31],17.9 ± 6 nM
same,EC50,mMC3R [10]; ref [31],740 ± 160 nM
"CC(=O)N[C@@H](Cc1cccs1)C(=O)N[C@H](Cc1ccccc1)C(=O)N[C@@H](CCCNC(=N)N)C(=O)N[C@@H](Cc1c[nH]c2ccccc12)C(N)=O [Peptide 52, Ac-2Thi-DPhe-Arg-Trp-NH2] (Ac-[2Thi][dF]RW-NH2)",selectivity between the mMC1R and the mMC5R,mMC5R [1],≤ 5 fold
same,EC50,mMC5R [8]; ref [33],41 ± 13 nM
same,EC50,mMC1R [9]; ref [33],200 ± 40 nM
same,EC50,mMC3R [10]; ref [33],3000 ± 300 nM
Ac-DHis-DPhe-Arg-Trp-NH2 [Peptide 53],EC50,mMC5R [8]; ref [33],140 ± 20 nM
same,EC50,mMC3R [10]; ref [33],6200 ± 2500 nM
Ac-H[dF]R[1Nal]-NH2 [Peptide 38],EC50,mMC4R [7]; ref [31],260 ± 30 nM
same,EC50,mMC5R [8]; ref [31],33 ± 4 nM
same,EC50,mMC1R [9]; ref [31],730 ± 320 nM
same,EC50,mMC3R [10]; ref [31],3500 ± 1300 nM
Ac-H[dF]R[Bip]-NH2 [Peptide 42],EC50,mMC4R [7]; ref [31],2700 ± 500 nM
same,EC50,mMC5R [8]; ref [31],100 ± 20 nM
same,EC50,mMC1R [9]; ref [31],52 ± 10 nM
same,EC50,mMC3R [10]; ref [31],13000 ± 800 nM
Ac-H[dF]R[Tic]-NH2 [Peptide 41],EC50,mMC4R [7]; ref [31],8500 ± 900 nM
same,EC50,mMC5R [8]; ref [31],700 ± 100 nM
same,EC50,mMC1R [9]; ref [31],43 ± 13 nM
same,EC50,mMC3R [10]; ref [31],23000 ± 2000 nM
Ac-H[dF]R[d2Nal]-NH2 [Peptide 40],EC50,mMC4R [7]; ref [31],46.2 ± 7.9 nM
same,EC50,mMC5R [8]; ref [31],12.1 ± 3.3 nM
same,EC50,mMC1R [9]; ref [31],130 ± 30 nM
same,EC50,mMC3R [10]; ref [31],1600 ± 600 nM
Ac-H[dF]R[dBip]-NH2 [Peptide 43],EC50,mMC4R [7]; ref [31],1500 ± 400 nM
same,EC50,mMC5R [8]; ref [31],150 ± 10 nM
same,EC50,mMC1R [9]; ref [31],310 ± 70 nM
same,EC50,mMC3R [10]; ref [31],16000 ± 5000 nM
Ac-His-(pI)DPhe-Arg-Trp-NH2 [Peptide 45],EC50,mMC5R [8]; ref [32],1.6 ± 0.4 nM
Ac-His-DBip-Arg-Trp-NH2 [Peptide 47],EC50,mMC4R [7]; ref [32],68 ± 16 nM
same,EC50,mMC5R [8]; ref [32],11.6 ± 3.9 nM
same,EC50,mMC1R [9]; ref [32],28 ± 11 nM
same,EC50,mMC3R [10]; ref [32],2100 ± 700 nM
Ac-His-DNal(1’)-Arg-Trp-NH2 [Peptide 46],EC50,mMC4R [7]; ref [32],300 ± 70 nM
same,EC50,mMC5R [8]; ref [32],51 ± 4 nM
same,EC50,mMC1R [9]; ref [32],360 ± 60 nM
same,EC50,mMC3R [10]; ref [32],4100 ± 100 nM
Ac-His-DPhe-Arg-3Bal-NH2 [Peptide 44],EC50,mMC4R [7]; ref [31],140 ± 20 nM
same,EC50,mMC5R [8]; ref [31],48 ± 4 nM
same,EC50,mMC1R [9]; ref [31],80 ± 9 nM
same,EC50,mMC3R [10]; ref [31],3700 ± 1400 nM
Ac-His-DPhe-Arg-Phe-NH2 (Ac-H[dF]RF-NH2; SMILES CC(=O)N[C@@H](Cc1c[nH]cn1)C(=O)N[C@H](Cc1ccccc1)C(=O)N[C@@H](CCCNC(=N)N)C(=O)N[C@@H](Cc1ccccc1)C(N)=O) [Peptide 37],EC50,mMC4R [7]; ref [31],7800 ± 2500 nM
same,EC50,mMC5R [8]; ref [31],890 ± 110 nM
same,EC50,mMC1R [9]; ref [31],530 ± 240 nM
same,EC50,mMC3R [10]; ref [31],27000 ± 7000 nM
Ac-Phe-DPhe-Arg-Trp-NH2 (Ac-F[dF]RW-NH2; SMILES CC(=O)N[C@@H](Cc1ccccc1)C(=O)N[C@H](Cc1ccccc1)C(=O)N[C@@H](CCCNC(=N)N)C(=O)N[C@@H](Cc1c[nH]c2ccccc12)C(N)=O) [Peptide 48],EC50,mMC4R [7]; ref [33],71 ± 14 nM
same,EC50,mMC5R [8]; ref [33],140 ± 5 nM
same,EC50,mMC1R [9]; ref [33],500 ± 100 nM
same,EC50,mMC3R [10]; ref [33],12000 ± 2000 nM
Ac-Trp-DPhe-Arg-Trp-NH2 (Ac-W[dF]RW-NH2; SMILES CC(=O)N[C@@H](Cc1c[nH]c2ccccc12)C(=O)N[C@H](Cc1ccccc1)C(=O)N[C@@H](CCCNC(=N)N)C(=O)N[C@@H](Cc1c[nH]c2ccccc12)C(N)=O) [Peptide 49],EC50,mMC4R [7]; ref [33],530 ± 150 nM
same,EC50,mMC5R [8]; ref [33],510 ± 100 nM
same,EC50,mMC1R [9]; ref [33],5400 ± 1800 nM
same,EC50,mMC3R [10]; ref [33],10000 ± 2000 nM
Ac-[3Pal][dF]RW-NH2 [Peptide 50],EC50,mMC4R [7]; ref [33],890 ± 100 nM
same,EC50,mMC5R [8]; ref [33],400 ± 100 nM
same,EC50,mMC1R [9]; ref [33],1200 ± 200 nM
same,mMC3R pharmacology in words,mMC3R [10]; ref [33],only slight agonist activity
Ac-[4Pal][dF]RW-NH2 [Peptide 51],EC50,mMC4R [7]; ref [33],130 ± 30 nM
same,EC50,mMC5R [8]; ref [33],93 ± 22 nM
same,EC50,mMC1R [9]; ref [33],180 ± 80 nM
same,EC50,mMC3R [10]; ref [33],2300 ± 800 nM
Octanoyl-His-DPhe-Arg-Trp-NH2 [Peptide 54],EC50,mMC5R [8]; ref [34],0.79 ± 0.25 nM
same,EC50,mMC3R [10]; ref [34],4 ± 0.7 nM
